The record followed here is patent US20150050410A1, “COMPOUNDS, COMPOSITIONS, AND METHODS FOR MODULATING SWEET TASTE” (Chromocell Corporation, priority 2013, published 2015).

Assay type in all cases: in vivo
In test [1] the test system is perception of the sweet taste in humans. Put plainly: Trained descriptive analysis (DA) panel, sweet attribute. To be noted: 35 ppm; for compound effects beyond the additive effect of inherent sweetness: 4% fructose and 8% sucrose; for perceived sweetness compared to control sweetener solutions (FIG. 2): aqueous fructose and sucrose solutions at pH 3; for perceived sweetness compared to control sweetener solutions (FIG. 2) / perceived sweetness compared to control sweetener solutions (FIG. 1): ** p<0.01; for perceived sweetness compared to control sweetener solutions (FIG. 1): aqueous fructose and sucrose solutions at pH 7. Here is the method: The effect of the test compounds on the perception of the sweet taste in an aqueous environment, in the absence or presence of carbohydrate sweeteners, was evaluated using a descriptive analysis methodology with a group of trained panelists, as follows.
Candidate panelists were recruited, with prescreening and personal interviews, and were assessed for their ability to detect, recognize and differentiate basic taste attributes or mixtures thereof as part of a standardized acuity test. These candidate panelists were also assessed for their innate ability to identify flavors, and to rank on intensity scales. Other senses such as smell and vision were also included as part of the assessment. Candidates also were screened for their ability to use the language to describe and articulate ideas.
Selected candidates proceeded to training as a group in three phases: (1) Lexicon development, (2) Concept alignment, and (3) Scaling descriptors. During lexicon development, panelists evaluated products appropriate for use in the study to generate and align on terms describing the flavor, taste, aromatic, trigeminal, and temporal attributes. During concept alignment, the panel evaluated the products mentioned above to clarify and confirm the attributes that were generated during lexicon development using reference standards that appropriately define each attribute; these are either physical references (e.g. sucrose solutions) or verbal descriptions (e.g. overall flavor). Product terms and concepts were validated during this portion of the study.
In the last phase, scaling descriptors, the panel participated in a series of exercises focused on ordering and ranking samples according to relative attribute intensity, measuring attribute intensity using a defined length of line scale. Whenever possible, different levels or concentration of references were used as anchors to facilitate use of the scale. Panelists were provided with blinded references at this stage to evaluate their understanding and perception of the scale.
The panel used in this example was trained to reference sweet attributes in an absolute manner, such that a particular concentration of sweetener is always measured by the panelists at the same point using a 15 cm line scale where each cm represents a 1% increase in sucrose to cover the range of 0% to 15% sucrose. For the rest of the attributes, the panel was trained using a hybrid approach between descriptive analysis methods (e.g. quantitative descriptive analysis, the sensory spectrum, etc.) well-known to those skilled in the art.
The trained panel was then used for a descriptive analysis assessment for Compounds 1, 2 and 3 in aqueous solutions at pH 3 and pH 7. Each of the three compounds was tested at 35 ppm in sucrose and fructose sweeteners. In addition, Compounds 1, 2 and 3 were also examined in water at pH 3 and pH 7 to assess for any inherent sweetness.
The aqueous sweetener solutions were prepared by adding, fructose or sucrose (by weight), to water to achieve the desired concentration. Aqueous sucrose solutions at pH 3 were buffered using a final concentration of 0.096% Citric Acid plus 0.036% Sodium Citrate while aqueous fructose solutions at pH 3 were buffered using a final concentration of 0.06% Citric Acid and 0.0225% Sodium Citrate.
Compounds were first prepared as a […] concentrated stock solution in 100% ethanol. These concentrated stocks were then added to the aqueous sweetener solutions to result in a final ethanol concentration of 0.2%. In addition to compounds, a solubilizing agent at a final concentration of 0.02% was added to the aqueous sweetener solutions. Control samples were also balanced with 0.2% ethanol and in certain cases 0.02% solubilizing agent.
Both control (aqueous sweetener solutions without compound) and variant (aqueous sweetener solutions with compound) samples were blinded and randomized (by sweetener and pH blocks). […]

Test [2] deals with perception of the sweet taste of an aqueous solution of sweetener in humans. Put plainly: Two-alternative forced choice "sip and spit" method (2AFC). To be noted: for Fold increase in perceived sweetness: positive control conc. / test sample conc. As for the experimental part:
The taste test panelists used in the Examples 1-3 were selected using a sensory acuity screening program. Candidate taste panelists were recruited, with prescreening and personal interviews, and were assessed and for their ability to detect, recognize and differentiate basic taste attributes or mixtures thereof as part of a standardized acuity test. This included basic tastes of sweet, sour, salty, bitter and umami, as well as having the capacity to focus on specific aspects of sensory character such as ranking the various tastes perceived and identifying the basic tastes presented at threshold levels.
The effect of the test compounds on the perception of the sweet taste of an aqueous solution of sweetener in humans was evaluated using a two-alternative forced choice “sip and spit” method (2AFC).
(§1) The aqueous sweetener solutions were prepared by adding, fructose, sucrose or glucose (by weight), to water to achieve the desired concentration.
Compounds were first prepared as a 500-fold concentrated stock solution in 100% ethanol. These concentrated stocks were then added to the aqueous sweetener solutions to result in a final ethanol concentration of 0.2%. The control (positive and negative) samples were also normalized to 0.2% ethanol. This level of ethanol was not seen to contribute any perceived sweetness.
The 2AFC test used for compound evaluation was a blind and randomized test where taste panelists (n=15) evaluate a pair of sweetener solutions at a time one sample contains aqueous sweetener solution plus compound (i.e. test) while the other contains aqueous sweetener solution at higher concentration without compound (i.e. positive control). Each test sample was compared against a positive control. For example, if the test sample contained 1× sweetener concentration with compound (e.g. 5% sucrose with compound), the positive control sample contained a 1.1× sweetener concentration (e.g. 5.5% sucrose without compound).
Panelists were instructed not to eat or drink (except water) for at least 1 h before the test. During the test, panelists were instructed to sip each sample, swirl it around their mouth and then expectorate. After tasting each sample in the pair, panelists were instructed to record the sample that is “sweeter” in taste. Panelists cleansed their palates by rinsing with water, eating a cracker and waiting for an interval of about 5 minutes. Each pair was tasted twice. All samples were tasted at ambient temperatures. Data were analyzed using binomial probabilities.
Approximate levels of sweetness enhancement in column 5 of Table 2 were calculated as follows:
Approximate levels of sweetness enhancement=Sweetener concentration of positive control surpassed by the test sample, divided by sweetener concentration for compound-containing sample (e.g. 1.15×=5.75% sucrose/5% sucrose).

Test [3] shares this test system. Put plainly: Ranking "sip and spit" assessment of sweetness perception (R index). To be noted: test sample 5% sucrose; compound 10 ppm; vs negative control; R index >=60 = significantly different. Here is the method:
The effect of the test compounds on the perception of the sweet taste of an aqueous solution of sweetener in humans was evaluated using a ranking “sip and spit” method.
as §1
Compounds were first prepared as a 500-fold concentrated stock solution in 100% ethanol. These concentrated stocks were then added to the aqueous sweetener solutions to result in a final ethanol concentration of 0.2%. The control (positive and negative) samples were also normalized to 0.2% ethanol.
In the ranking test used for compound evaluation, taste panelists (n=15), rank samples in increasing order of sweetness. One set, comprising of 6 samples, was presented to each panelists at a given time and are asked to rank them in order of increasing sweetness.
Panelists were instructed not to eat or drink (except water) for at least 1 h before the test. During the test, panelists were instructed to sip each sample, swirl it around their mouth and then expectorate. After tasting each set, panelists were instructed to rank the 6 samples within the set from least sweet to most sweet. Where rank 1—is lowest in sweetness and rank 6—is highest in sweetness. Panelists cleansed their palates by rinsing with water, eating a cracker and waiting for an interval of 10 minutes. […]

[4] abbreviates: test sample 4% fructose, compound 25 ppm.
[5] abbreviates: test sample 4% fructose, positive control fructose, compound 25 ppm.
Setting [6] is: test sample 4% fructose, positive control fructose, compound 20 ppm.

Consider `COc1ccc([C@@H]2CC(=O)c3c(O)cccc3O2)cc1O` (single isomer, unassigned) [Compound 2], for which the “compound effects beyond the additive effect of inherent sweetness” value in test [1] (pH 3, Table 7 vs Table 5) is listed as “super-additive effects”; in test [1] (pH 7, Table 6 vs Table 4), “super-additive effects”. Besides, in test [1], the “perceived sweetness compared to control sweetener solutions (FIG. 2)” value was “significant increase in perceived sweetness”. The “perceived sweetness compared to control sweetener solutions (FIG. 1)” value in test [1] was “significant increase in perceived sweetness”. Besides, the “Fold increase in perceived sweetness” value in test [2] (setting [4]) is given as more than 1.20X; in test [2] (test sample 5% sucrose, compound 15, 25 ppm) it was more than 1.20X; in test [2] (test sample 6.5% glucose, compound 10, 20, 25 ppm), more than 1.15X. The “Sweetener Concentration of positive control surpassed by test sample” value (from here on “Sweetener Concentration”) is more than 4.8% in test [2] (setting [5]); more than 6% in test [2] (test sample 5% sucrose, positive control sucrose, compound 15, 25 ppm); more than 7.48% in test [2] (test sample 6.5% glucose, positive control glucose, compound 10, 20, 25 ppm).
For the compound `COc1ccc([C@H]2CC(=O)c3c(O)cccc3O2)cc1O` (single isomer, unassigned) [Compound 3], the “compound effects beyond the additive effect of inherent sweetness” value is listed as “super-additive effects” in test [1] (pH 3, Table 7 vs Table 5) and “super-additive effects” in test [1] (pH 7, Table 6 vs Table 4). Also, in test [1], the “perceived sweetness compared to control sweetener solutions (FIG. 2)” value is “significant increase in perceived sweetness”. For the same compound, in test [1], the “perceived sweetness compared to control sweetener solutions (FIG. 1)” value was “significant increase in perceived sweetness”. Besides, the “Fold increase in perceived sweetness” value in test [2] (setting [4]) was more than 1.25X; in test [2] (test sample 5% sucrose, compound 15 ppm) it was more than 1.20X; in test [2] (test sample 6.5% glucose, compound 25 ppm), more than 1.20X. The “Sweetener Concentration” value is reported as more than 5% in test [2] (setting [5]); more than 6% in test [2] (test sample 5% sucrose, positive control sucrose, compound 15 ppm); more than 7.8% in test [2] (test sample 6.5% glucose, positive control glucose, compound 25 ppm).
For the compound `COc1ccc(C2CC(=O)c3c(O)cc(OCCCC(=O)O)cc3O2)cc1O` (centres unmarked) [Compound 4, 4-((5-hydroxy-2-(3-hydroxy-4-methoxyphenyl)-4-oxochroman-7-yl)oxy)butanoic acid], the “Sweetener Concentration” value in test [2] (setting [6]) is listed as more than 4.4%.
Same read-out and setting: in the case of `CCCOc1ccc(C2CC(=O)c3c(O)cc(O)cc3O2)cc1O` (centres unmarked) [Compound 5, 5,7-dihydroxy-2-(3-hydroxy-4-propoxyphenyl)chroman-4-one] it was more than 4.4%.
`O=C1c2c(O)cc(O)cc2OC(c2ccc(O)c(O)c2)C1O` (centres unmarked) [Compound 11, 2-(3,4-dihydroxyphenyl)-3,5,7-trihydroxychroman-4-one]: in test [3], the “R Index Score” value came to 64.
As for `COc1ccc(C2CC(=O)c3c(O)cc(OCCCS(=O)(=O)[O-])cc3O2)cc1O.[K+]` (centres unmarked) [Compound 14, 3-((5-hydroxy-2-(3-hydroxy-4-methoxyphenyl)-4-oxochroman-7-yl)oxy)propane-1-sulfonic acid potassium salt], in test [2] (test sample 4% fructose, compound 20 ppm), the “Fold increase in perceived sweetness” value is listed as more than 1.1X. The “Sweetener Concentration” value in test [2] (setting [6]) was more than 4.4%.
Regarding `COc1ccc(C2CC(=O)c3c(O)cc(F)cc3O2)cc1O` (centres unmarked) [Compound 15, 7-fluoro-5-hydroxy-2-(3-hydroxy-4-methoxyphenyl)chroman-4-one], the “Sweetener Concentration” value in test [2] (setting [6]) is on record as more than 4.4%.
